Structures are written as SMILES.

The subject of one test is MCH receptors. Put plainly: MCH receptor activity class (method not given). The note with it: MCH receptor; class by percent of control at 10^-7 M or IC50.
`CN(C)c1nc(N[C@H]2CC[C@@H](NC(=S)Nc3ccc(F)cc3)CC2)nc2c1CCCC2` [compound 1941]: the class was 3 (Class 3 The value of percent of control at 10^−7 M was more than 60% or the value of IC50 was more than 200 nM.).

With `CN(C)c1cc(N[C@H]2CC[C@@H](NC(=O)c3cc(Cl)cc(Cl)c3)CC2)nc2ccccc12` [compound 30], the class is reported as 2 (Class 2: The value of percent of control at 10^−7 M was from 40% to 60% or the value of IC′50 was from 50 nM to 200 nM.).

With `CN(C)c1cc(N[C@H]2CC[C@@H](NC(=O)c3ccc(OC(F)(F)F)c(Cl)c3)CC2)nc2ccccc12` [compound 144], the class was 3 (Class 3 The value of percent of control at 10^−7 M was more than 60% or the value of IC50 was more than 200 nM.).

Regarding `COc1cc(COC(=O)N[C@H]2CC[C@@H](Nc3cc(N(C)C)c4ccccc4n3)CC2)c([N+](=O)[O-])cc1OC` [compound 119], the class was 3 (Class 3 The value of percent of control at 10^−7 M was more than 60% or the value of IC50 was more than 200 nM.).

Take `CN(C)c1cc(N[C@H]2CC[C@@H](NC(=O)c3cc(F)cc(C(F)(F)F)c3)CC2)nc2ccccc12` [compound 38, N-(cis-4-{[4-(dimethylamino)quinolin-2-yl]amino}cyclohexyl)-3-fluoro-5-(trifluoromethyl)benzamide]: the class is given as 2 (Class 2: The value of percent of control at 10^−7 M was from 40% to 60% or the value of IC′50 was from 50 nM to 200 nM.).

In the case of `CN(C)c1nc(N[C@H]2CC[C@@H](NC(=S)Nc3ccc(Cl)c(Cl)c3)CC2)nc2c1CCCC2` [compound 1937], the class is 3 (Class 3 The value of percent of control at 10^−7 M was more than 60% or the value of IC50 was more than 200 nM.).

The same test, now with this note: activity class 1-3: percent of control at 10^-7 M or IC50.
Turning to `CN(C)c1nc(N[C@H]2CC[C@@H](NC(=O)Nc3ccc(Oc4ccccc4)cc3)CC2)nc2c1CCCC2` [compound 1702], the class is recorded as 3 (Class 3 The value of percent of control at 10^−7 M was more than 60% or the value of IC50 was more than 200 nM.).

Regarding `CN(C)c1nc(N[C@H]2CC[C@@H](NC(=O)OCCOCc3ccccc3)CC2)nc2c1CCCC2` [compound 1579], the class is listed as 3 (Class 3 The value of percent of control at 10^−7 M was more than 60% or the value of IC50 was more than 200 nM.).

Still in this test, the particulars now being: activity class per percent of control at 10^-7 M or IC50.
With `Cc1cc(CN[C@H]2CC[C@@H](Nc3cc(N(C)C)c4ccccc4n3)CC2)cc(C)c1O` [compound 1103], the class is on record as 3 (Class 3 The value of percent of control at 10^−7 M was more than 60% or the value of IC50 was more than 200 nM.).

Turning to `CC(CCN[C@H]1CC[C@@H](Nc2cc(N(C)C)c3ccccc3n2)CC1)c1ccccc1` (relative stereo) [compound 1106], the class is 3 (Class 3 The value of percent of control at 10^−7 M was more than 60% or the value of IC50 was more than 200 nM.).

The same test, now with this note: class by percent of control at 10^-7 M or IC50.
As for `Cc1cc(NC(=O)N[C@H]2CC[C@@H](Nc3nccc(N(C)C)n3)CC2)c(C(F)(F)F)o1` [compound 2212], the class was 3 (Class 3 The value of percent of control at 10^−7 M was more than 60% or the value of IC50 was more than 200 nM.).

With `CN(C)c1cc(N[C@H]2CC[C@@H](NC(=O)CCC3CCCCC3)CC2)nc2ccccc12` [compound 695], the class is 3 (Class 3 The value of percent of control at 10^−7 M was more than 60% or the value of IC50 was more than 200 nM.).

Take `COc1ccccc1/C=C/CN[C@H]1CC[C@@H](Nc2nccc(N(C)C)n2)CC1` [compound 1233]: the class was 3 (Class 3 The value of percent of control at 10^−7 M was more than 60% or the value of IC50 was more than 200 nM.).

Consider `CN(C)c1cc(N[C@H]2CC[C@@H](NC(=O)c3ccc(C(F)(F)F)c(F)c3)CC2)nc2ccccc12` [compound 772, N-(cis-4-{[4-(dimethylamino)quinolin-2-yl]amino}cyclohexyl)-3-fluoro-4-(trifluoromethyl)benzamide], for which the class is listed as 1 (Class 1: The value of percent of control at 10^−7 M was less than 40% or the value of IC50 was less than 50 nM.).

For the compound `COc1ccc(CNC[C@H]2CC[C@@H](Nc3nc4c(c(N(C)C)n3)CCCC4)CC2)cc1C` [compound 1432], the class is 3 (Class 3 The value of percent of control at 10^−7 M was more than 60% or the value of IC50 was more than 200 nM.).

For `CCc1cccc(CC)c1NC(=O)N[C@H]1CC[C@@H](Nc2cc(N(C)C)c3ccccc3n2)CC1` [compound 2102], the class is listed as 1 (Class 1: The value of percent of control at 10^−7 M was less than 40% or the value of IC50 was less than 50 nM.).

In the case of `COc1ccc(NC(=S)N[C@H]2CC[C@@H](Nc3nc4c(c(N(C)C)n3)CCCC4)CC2)c(OC)c1` [compound 1740, N-(2,4-dimethoxyphenyl)-N′-(cis-4-{[4-(dimethylamino)-5,6,7,8-tetrahydroquinazolin-2-yl]amino}cyclohexyl)thiourea], the class was 1 (Class 1: The value of percent of control at 10^−7 M was less than 40% or the value of IC50 was less than 50 nM.).

On to `CCc1cccc2c(C(CC(=O)c3ccc(C(C)(C)C)cc3)C(=O)N[C@H]3CC[C@@H](Nc4cc(N(C)C)c5ccccc5n4)CC3)c[nH]c12` (relative stereo) [compound 720], for which the class is reported as 3 (Class 3 The value of percent of control at 10^−7 M was more than 60% or the value of IC50 was more than 200 nM.).

Take `COc1cc(F)c(CNC[C@H]2CC[C@@H](Nc3cc(N(C)C)c4ccccc4n3)CC2)cc1OC` [compound 1200]: the class was 3 (Class 3 The value of percent of control at 10^−7 M was more than 60% or the value of IC50 was more than 200 nM.).

The test is the same for the next values; noted with them: class by percent of control at 10^−7 M or IC50.
For the compound `Cc1cnc(NC[C@H]2CC[C@@H](NC(=O)c3ccc(Br)cc3)CC2)nc1N(C)C` [compound 2724, 4-bromo-N-[cis-4-({[4-(dimethylamino)-5-methylpyrimidin-2-yl]amino}methyl)cyclohexyl]benzamide], the class is 3 (Class 3 The value of percent of control at 10^−7 M was more than 60% or the value of IC50 was more than 200 nM.).

Turning to `Cc1cnc(N[C@H]2CC[C@@H](C(=O)Nc3cccc(F)c3)CC2)nc1N(C)C` [compound 2784, cis-4-{[4-(dimethylamino)-5-methylpyrimidin-2-yl]amino}-N-(3-fluorophenyl)cyclohexanecarboxamide], the class is recorded as 2 (Class 2: The value of percent of control at 10^−7 M was from 40% to 60% or the value of IC′50 was from 50 nM to 200 nM.).

With `Cc1nc(N[C@H]2CC[C@@H](NC(=O)c3cccc(C#N)c3)CC2)nc(N(C)C)c1C` [compound 2836, 3-cyano-N-(cis-4-{[4-(dimethylamino)-5,6-dimethylpyrimidin-2-yl]amino}cyclohexyl)benzamide], the class is given as 1 (Class 1: The value of percent of control at 10^−7 M was less than 40% or the value of IC50 was less than 50 nM.).

For the compound `Cc1ccc(C2(C(=O)N[C@H]3CC[C@@H](Nc4ncc(C)c(N(C)C)n4)CC3)CC2)cc1` [compound 2873], the class is on record as 1 (Class 1: The value of percent of control at 10^−7 M was less than 40% or the value of IC50 was less than 50 nM.).

For `Cc1cc(C(=O)NC[C@H]2CC[C@@H](Nc3ncc(C)c(N(C)C)n3)CC2)ccc1F` [compound 2696], the class was 2 (Class 2: The value of percent of control at 10^−7 M was from 40% to 60% or the value of IC′50 was from 50 nM to 200 nM.).

As to `COc1cccc(NC(=O)[C@H]2CC[C@@H](Nc3ncc(C)c(N(C)C)n3)CC2)c1` [compound 2787, cis-4-{[4-(dimethylamino)-5-methylpyrimidin-2-yl]amino}-N-(3-methoxyphenyl)cyclohexanecarboxamide], the class was 1 (Class 1: The value of percent of control at 10^−7 M was less than 40% or the value of IC50 was less than 50 nM.).

(Values after US20050197350A1, “Novel quinoline, tetrahydroquinazoline, and pyrimidine derivatives and methods of treatment related to the use thereof” (TAISHO PHARMACEUTICAL CO., LTD., priority 2003, published 2005).)
